Data on four compounds can be found in US6900021B1, “Microfluidic system and methods of use” (The University of Alberta, priority 1997, dated 2005).

The test system of test [1] is human lymphocytes. Kind of test: Calcium influx assay (stop flow, Fluo-3 AM fluorescence) with activator. It is filed as cell-based. To be noted: single lymphocyte. The source says: Calcium influx is involved in major cell functions and responses of lymphocytes. In this assay, the calcium ion influx into the lymphocytes is induced by a calcium releasing agent, calcimycin (A23187, calcium ionophore). The rise in the concentration of free intracellular calcium ions results in an increase in fluorescent signal from cells pretreated with a fluorescing agent. The kinetic results of calcium influx may be studied with the stop flow method in the microfluidic device.
There are several steps in the study of the process of calcium influx. First, an activator, calcimycin (A23187 calcium ionophore) and the calcium ion complex must adsorb on the cell surface. Second, the complex has to diffuse through the cell membrane. Third, once inside the cytosol, dissociation between the A23187 and calcium ion has to take place. Finally, a fluorescing agent, FLUO-3 AM, complexes with the released calcium and produces emitted light that can be detected (fluorescence).
For measurement of calcium influx, a calcium-specific fluorophore, Fluo-3 AM (Molecular Proves), was preloaded into purified human lymphocytes as acetoxymethyl (AM) ester. […]
A fluorescence microscope equipped with a 25× objective and a CCD camera was positioned over the detection zone, point “B” in FIG. 8, allowed the observation of cells as they passed the detection zone. […]

Another test relates to canine erythrocytes. Nature of the test: Lysis of canine erythrocytes by SDS in the microchip. It is filed as cell-based, dog. The protocol: A phosphate buffer, 40 mM each of NA2HPO4 and KH2PO4 (BDH analytical grade) was adjusted to pH 7.4 with either NaOH or HCl and used as an isotonic buffer for canine erythrocytes. (The plasma concentrations of […] in canine plasma are 94 and 6 mM. respectively. (8,9) Assuming a monoanion as the counterion gives as osmolarity of 200 mM, equal to that of the buffer prepared.) A hypotonic solvent, deionized water, was used to prepare yeast or E. coli cell suspensions. Sodium dodecyl sulfate (SDS, Serva, analytical grade) was prepared at 3 mM (0.1 wt %) in deionized water. Other chemicals were reagent grade and were used without further purification.
Red blood cells of a healthy dog were obtained from Heritage Medical Research Centre (Edmonton, AB, Canada). Blood samples were collected using EDTA as the anticoagulant. These were centrifuged for separation into various blood components. After removal of the plasma and buffy coat, the erythrocytes were isolated as a cell pellet. A citrate-phosphate-dextrose (CPD) solution, (9), used to store human whole blood for enhancement of the poststorage viability of red cells, (10), was adapted for handling and storing the canine cells by addition of KCl and NaCl as well. The solutions contained 2.5 mM dextrose, 1.6 mM sodium citrate, 0.28 mM citric acid, 0.15 mM Na2HPO4, 94 mM NaCl, and 6.0 mM KCl. An erythrocyte suspension of 5% hematocrit was used. The cells were washed several times with the isotonic phosphate buffer to remove the storage buffer, using a Sanyo MSE MicroCentaur centrifuge.
The visual cell lysis experiment was performed in the COPI device (FIG. 5A). The B reservoir, which contained erythrocytes and the S reservoir, containing 3 mM SDS, were both at +150 V, while the SW reservoir was at ground. The potential at BW was floating.
For the cell lysis experiment using PMT detection, the PCRD2 device (FIG. 5B) was used. Cells were introduced into the S reservoir to which 400 V was applied, versus ground on the SW reservoir. A 3 mM SDS solution was introduced into the B reservoir. […]

For test [2], the system named is human lymphocytes. Kind of test: Calcium influx assay with lymphocyte inhibitor. It counts as cell-based. The protocol:
The microfluidic device and human lymphocytes were prepared as described in Example III.
With reference to FIG. 8, 100 μM of verapamil, an inhibitor, was introduced into channel #1; buffer was introduced into channel #2; leukocytes were introduced into channel #3; and calcium activator A23187 was introduced into channel #4.
The device was run as described in Example III above. Verapamil was introduced to the lymphocytes at point “A” intersection of the device (FIG. 8). The lymphocytes were incubated with verapamil for four minutes while transported through the main channel to the mixing point “B”.

For test [3], the target named is T1, E-selectin (Homo sapiens, UniProt P16581).
T1 sequence (P16581 22-610): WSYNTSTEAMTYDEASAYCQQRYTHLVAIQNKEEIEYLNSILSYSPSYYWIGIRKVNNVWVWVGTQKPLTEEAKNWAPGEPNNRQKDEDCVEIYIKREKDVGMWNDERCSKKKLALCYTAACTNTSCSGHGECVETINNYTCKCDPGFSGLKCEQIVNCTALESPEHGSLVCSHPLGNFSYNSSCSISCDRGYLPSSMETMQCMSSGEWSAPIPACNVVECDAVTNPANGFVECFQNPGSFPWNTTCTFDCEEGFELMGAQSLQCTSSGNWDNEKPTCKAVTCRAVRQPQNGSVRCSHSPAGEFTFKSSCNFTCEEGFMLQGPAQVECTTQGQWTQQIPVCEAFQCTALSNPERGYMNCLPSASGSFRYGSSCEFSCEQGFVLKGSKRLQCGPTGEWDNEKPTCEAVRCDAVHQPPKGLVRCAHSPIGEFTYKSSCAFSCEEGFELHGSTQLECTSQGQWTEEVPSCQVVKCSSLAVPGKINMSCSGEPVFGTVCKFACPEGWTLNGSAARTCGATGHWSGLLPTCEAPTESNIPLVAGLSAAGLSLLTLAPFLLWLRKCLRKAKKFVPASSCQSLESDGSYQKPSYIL
Kind of test: Cell rolling assay with undiluted human blood, E-selectin coated device. It counts as cell-based. To be noted: heparinated whole human blood; HCRIVc device.
Description: (§1) This device was previously coated either P-selectin or E-selectin as described above. 50 μl heparinated whole human blood (1 mg/ml heparin was added to the blood) was introduced into the first reservoir of the “Y” shape device shown in FIG. 12. The human blood was moved from the reservoir into the channel by a syringe pump at optimum flow rate for the device (see Table II) and the main flow channel, about 1-2 cm from intersection of “Y”, was observed under the microscope for 15 minutes.
(§2) 50 μl of a mixture of inhibitor and heparinated blood was placed into the second reservoir and introduced into the channel for 3-10 minutes.

For test [4], the target named is T2, P-selectin (Homo sapiens, UniProt P16109).
T2 sequence (P16109 42-830): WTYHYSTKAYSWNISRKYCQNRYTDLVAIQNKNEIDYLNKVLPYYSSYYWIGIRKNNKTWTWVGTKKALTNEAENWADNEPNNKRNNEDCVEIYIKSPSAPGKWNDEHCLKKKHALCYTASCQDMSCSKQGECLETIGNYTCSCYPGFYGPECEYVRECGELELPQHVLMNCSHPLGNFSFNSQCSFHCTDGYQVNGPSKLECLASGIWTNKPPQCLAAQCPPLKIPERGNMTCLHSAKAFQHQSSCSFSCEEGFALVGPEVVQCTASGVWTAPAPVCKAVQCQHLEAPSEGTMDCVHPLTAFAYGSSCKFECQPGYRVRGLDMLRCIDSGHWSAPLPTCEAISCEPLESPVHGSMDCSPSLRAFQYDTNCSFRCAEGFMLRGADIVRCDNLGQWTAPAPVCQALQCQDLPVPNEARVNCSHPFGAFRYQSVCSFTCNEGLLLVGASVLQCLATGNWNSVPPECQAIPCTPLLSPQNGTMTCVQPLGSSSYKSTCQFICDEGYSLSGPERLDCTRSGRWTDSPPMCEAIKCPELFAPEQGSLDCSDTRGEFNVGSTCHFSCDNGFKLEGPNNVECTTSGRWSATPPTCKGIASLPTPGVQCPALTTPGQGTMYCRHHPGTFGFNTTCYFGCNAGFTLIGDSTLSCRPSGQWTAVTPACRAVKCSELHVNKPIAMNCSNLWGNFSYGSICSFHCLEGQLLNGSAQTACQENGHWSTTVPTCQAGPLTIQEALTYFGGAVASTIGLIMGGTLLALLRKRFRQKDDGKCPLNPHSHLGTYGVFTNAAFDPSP
Kind of test: Cell rolling assay with undiluted human blood, P-selectin coated device. It counts as cell-based. To be noted: heparinated whole human blood; HCRIVc device.
Description: as §1, §2

The target of test [5] is T1, E-selectin. Kind of test: Cell rolling of neutrophils on E-selectin coated microchip. It counts as cell-based. To be noted: concentration not given.
For test [6], the target named is T2, P-selectin. Kind of test: Cell rolling of neutrophils on P-selectin coated microchip. It counts as cell-based. To be noted: concentration not given. As to the method:
In preparation for cell rolling, the channels were coated with the desired selectin by methods similar to those set forth in Example VII.
To study cell rolling, two reservoirs leading to one channel were filled with cells. The contents of both the first and second reservoir (cells only) were drawn into the channel and cell rolling was observed.
The HCRIVa microchip was coated with 20 μg/ml P-selectin by methods similar to that described in Example VII and incubated for two hours. Isolated human neutrophils were moved through the rolling microchip with a flow rate of 10 μl/min. (approx. 800/cm shear rate=40 dynes/cm^2 shear force).

For the compound `CNc1ccc2oc(C[C@H]3O[C@@]4(CC[C@H]3C)O[C@H]([C@H](C)C(=O)c3ccc[nH]3)[C@H](C)C[C@H]4C)nc2c1C(=O)O` [A23187, calcimycin], in the test with human lymphocytes [1], the “time at the mixing point until lymphocyte showed fluorescence caused by calcium influx” value was determined as 4 s.
In the case of `CCCCCCCCCCCCOS(=O)(=O)[O-].[Na+]` [SDS, Sodium dodecyl sulfate], in the test with canine erythrocytes (3 mM SDS in deionized water, PMT 2.5 mm downstream of mixing point, PCRD2 device), the “scattered light signal from the cells” value is reported as “signal dropped”. Moreover, the “total time elapsed for lysis of the marked cells (three frames)” value in the test on canine erythrocytes (3 mM SDS, COPI device, double-T region, 130 V/cm) came out at 0.3 s. The “lysis of erythrocytes (hemolysis) in a flowing stream” value in the test on canine erythrocytes (anionic detergent mixed with cell stream at an intersection) is listed as “lysed cells sufficiently rapidly”.
With `COc1ccc(CCN(C)CCCC(C#N)(c2ccc(OC)c(OC)c2)C(C)C)cc1OC` (centres unmarked) [verapamil], the “activation in calcium flux” value with human lymphocytes [2] (100 μM, incubated four minutes, activator A23187) was “significant reduction”. Further, in the test with human lymphocytes [2] (100 μM, incubated four minutes, twenty individual lymphocytes), the “fluorescence of inhibitor treated lymphocyte after activation with A23187” value is “no fluorescence”. Also, in the test with human lymphocytes [2] (lymphocytes incubated for 30 seconds in the mixing channel), the “inhibition of calcium influx” value was “no inhibition”.
Consider Fucoidine, for which, on E-selectin [3], the “inhibition of leukocyte rolling in whole blood in the presence of E-selectin” value is “took a longer time to inhibit rolling”. The “inhibition of leukocyte rolling in whole blood in the presence of P-selectin” value on P-selectin [4] was “took a longer time to inhibit rolling”. Also, the “inhibition of rolling of the neutrophils in the presence of E-selectin” value at E-selectin [5] is given as “took a longer time to inhibit rolling”. Further, the “inhibition of rolling of the neutrophils in the presence of P-selectin” value on P-selectin [6] is “took a longer time to inhibit rolling”.
